Experiments:
[1] = system: serotonergic system; assay: L-5-hydroxytryptophan potentiation in rats; assay type: in vivo; details: male Wistar rats, i.p.; for % Potentiation: @ 20 mg/kg, normalized relative to vehicle control; for ED50: Rattus norvegicus, ip, forelimb clonus after pargyline + 5-HTP
Description: According to the monoamine hypothesis of depression, compounds exert antidepressant activity because they are capable of enhancing central noradrenergic and/or serotonergic function (Shtee and […] 1971; Douglas 1975; Lingjaerde 1973). This procedure is used to evaluate enhanced activity of the serotonergic system. Groups of six male Wistar rats (150-200 g) are used in this test procedure. […] Thirty minutes before the 5-HTP administration, drugs are prepared and dosed using distilled water and, if insoluble, a suitable surfactant is added. Control groups receive vehicle. Drugs are routinely administered i.p. at a dosage volume of 10 ml/kg. L-5-hydroxytrpytophan (Calbiochem-Behring Corp.) is prepared at 1.0 mg/kg in distilled water and is administered i.p. in volumes proportional to 10 ml/kg. Fifteen minutes post-5-HTP treatment, each animal is observed for 10 seconds. Animal observations and 5-HTP administration are done in the presence of "white noise". In a dose range, drugs are administered in a randomized manner. […] Potentiation is expressed as normalized percent potentiation relative to vehicle control. […] An ED50 and 95% confidence limit are determined by Litchfield and Wilcoxon.

[2] = system: mice; assay: 2-phenyl-1,4-benzoquinone-induced writhing test in mice; assay type: in vivo; details: phenylquinone writhing
Description: The compounds of Formula I of the present invention are also useful as analgesic agents due to their ability to alleviate pain in mammals.

CN1CCN(CC#CCN2C(=O)c3cccc4c3N(CC4)c3ccc(Br)cc32)CC1.O=C(O)/C=C/C(=O)O [9-Bromo-1,2-dihydro-7-[4-(4-methyl-1-piperazinyl)-2-butynyl]benzo[b]pyrrolo[3,2,1-jk][1,4]benzodiazepin-6-one fumarate]
% Potentiation [1]: 50%

COc1ccccc1N1CCN(CC#CCN2C(=O)c3cccc4c3N(CC4)c3ccc(Br)cc32)CC1 [9-Bromo-1,2-dihydro-7-[4-[4-(2-methoxyphenyl)-1-piperazinyl]-2-butynyl]-2-butynyl]benzo[b]pyrrolo[3,2,1-jk][1,4]benzodiazepin-6-one]
% Potentiation [1]: 50%

O=C1c2cccc3c2N(CC3)c2ccc(Br)cc2N1CC#CCN1CCC(n2c(=O)[nH]c3ccccc32)CC1 [9-Bromo-1,2-dihydro-7-[4-[4-(2-oxo-1H-benzimidazol-3-yl)-1-piperidinyl-2-butynyl]benzo[b]pyrrolo[3,2,1-jk][1,4]benzodiazepin-6-one monohydrate]
Inhibition at 20 mg/kg, s.c. [2]: 42%

CN(C)CCC=C1c2ccccc2CCc2ccccc21 [Amitriptyline, reference compound]
ED50 [1]: 7.1 mg/kg

CC1CCN(CC#CCN2C(=O)c3cccc4c3N(CC4)c3ccccc32)CC1 [1,2-Dihydro-7-[4-(4-methyl-1-piperidinyl)-2-butynyl]benzo[b]pyrrolo[3,2,1-jk][1,4]benzodiazepin-6-one hemifumarate]
ED50 [1]: 25.3 mg/kg

CN1CCN(CC#CCN2C(=O)c3cccc4c3N(CC4)c3ccccc32)CC1.O=C(O)/C=C/C(=O)O [1,2-Dihydro-7-[4-(4-methyl-1-piperazinyl)-2-butynyl]benzo[b]pyrrolo[3,2,1-jk][1,4]benzodiazepin-6-one fumarate]
Inhibition at 20 mg/kg, s.c. [2]: 44%

CCC(=O)O[C@](Cc1ccccc1)(c1ccccc1)[C@H](C)CN(C)C [Propoxyphene, reference compound]
ED50 ([2]; Mus musculus, sc, read-out: ED50 (writhing inhibition)): 3.9 mg/kg

CC1CCN(CC#CCN2C(=O)c3cccc4c3N(CC4)c3ccc(Br)cc32)CC1 [9-Bromo-1,2-dihydro-7-[4-(4-methyl-1-piperidinyl)-2-butynyl]benzo[b]pyrrolo[3,2,1-jk][1,4]benzodiazepin-6-one hemifumarate]
Inhibition at 20 mg/kg, s.c. [2]: 41%

Source: patent publication US5536717A, “7-[4-(substituted amino)-2-butynl]benzo[B]pyrrolo[3,2,1-JK]-[1,4]benzodiazepin-6-ones” (Hoechst Marion Roussel Inc., priority 1993, dated 1996)
